Drawing on patent publication US9409868B2, “Inhibitors of rho associated protein kinases (ROCK) and methods of use” (H. LEE MOFFITT CANCER CENTER AND RESEARCH INSTITUTE, INC., priority 2012, dated 2016), this text covers IC50 for one compound.

SMILES strings stand for the structures. Where two headings read alike, the source gives them in different places.

The target of test [1] is T1, ROCK2 (Homo sapiens (Human), UniProt O75116). Put plainly: Z-Lyte FRET kinase assay, ROCK2. The class given is biochemical. Particulars: triplicate experiments. An excerpt:
(§1) Kinase Assay. A robust FRET-based, enzyme-coupled assay format, Z-Lyte® Kinase Assay Ser/[…] Peptide Kit (Invitrogen, cat. PV3793), was employed in this study to monitor inhibition of ROCK1 (Invitrogen, cat. PV3691) and ROCK2 (Invitrogen, cat. PV3759) enzyme activities. […] The substrate contains both coumarin and fluorescein and only uncleaved […] substrate will undergo FRET. […] A known inhibitor, Y-27632 (Tocris Bioscience, cat. 1254), is used as a control compound.

The target in test [2] is ROCK1 (Homo sapiens (Human), UniProt Q13464). Put plainly: Z-Lyte FRET kinase assay, ROCK1. The class given is biochemical. The following applies: triplicate experiments.
ROCK1, sequence (Q13464 whole entry): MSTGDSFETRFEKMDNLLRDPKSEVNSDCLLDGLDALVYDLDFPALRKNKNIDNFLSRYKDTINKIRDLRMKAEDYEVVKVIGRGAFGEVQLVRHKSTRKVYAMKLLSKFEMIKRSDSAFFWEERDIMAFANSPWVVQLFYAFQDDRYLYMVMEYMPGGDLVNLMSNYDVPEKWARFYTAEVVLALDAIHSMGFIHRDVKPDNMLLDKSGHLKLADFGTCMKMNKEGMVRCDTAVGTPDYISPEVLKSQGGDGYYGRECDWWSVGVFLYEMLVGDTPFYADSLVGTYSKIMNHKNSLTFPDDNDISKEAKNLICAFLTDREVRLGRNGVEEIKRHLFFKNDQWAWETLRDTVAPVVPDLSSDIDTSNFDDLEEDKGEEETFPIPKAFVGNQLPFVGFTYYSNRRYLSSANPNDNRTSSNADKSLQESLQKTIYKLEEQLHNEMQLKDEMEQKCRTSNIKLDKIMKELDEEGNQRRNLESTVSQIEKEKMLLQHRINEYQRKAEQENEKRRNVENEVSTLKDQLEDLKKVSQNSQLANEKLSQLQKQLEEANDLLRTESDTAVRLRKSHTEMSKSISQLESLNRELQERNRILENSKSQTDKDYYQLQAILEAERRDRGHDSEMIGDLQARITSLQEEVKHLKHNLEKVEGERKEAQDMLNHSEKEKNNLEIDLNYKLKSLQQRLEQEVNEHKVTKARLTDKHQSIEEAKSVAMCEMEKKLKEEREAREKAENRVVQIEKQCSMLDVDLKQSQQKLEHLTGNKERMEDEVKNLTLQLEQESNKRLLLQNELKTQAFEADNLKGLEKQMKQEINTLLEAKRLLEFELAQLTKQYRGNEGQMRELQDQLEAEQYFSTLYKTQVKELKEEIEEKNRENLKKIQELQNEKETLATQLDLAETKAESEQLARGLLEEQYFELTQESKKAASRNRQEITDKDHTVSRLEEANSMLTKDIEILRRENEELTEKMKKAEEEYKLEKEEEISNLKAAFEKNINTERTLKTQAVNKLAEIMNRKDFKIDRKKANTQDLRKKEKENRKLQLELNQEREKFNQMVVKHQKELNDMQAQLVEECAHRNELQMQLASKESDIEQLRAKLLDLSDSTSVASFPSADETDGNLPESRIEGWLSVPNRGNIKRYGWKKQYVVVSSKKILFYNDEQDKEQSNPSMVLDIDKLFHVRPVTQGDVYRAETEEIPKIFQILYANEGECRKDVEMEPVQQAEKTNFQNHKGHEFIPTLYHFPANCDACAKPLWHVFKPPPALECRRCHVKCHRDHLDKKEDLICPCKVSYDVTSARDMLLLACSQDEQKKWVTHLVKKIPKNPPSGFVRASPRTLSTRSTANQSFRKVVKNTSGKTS
From the text: as §1

Test [3] addresses T1, ROCK2. The following applies: different assay conditions; read-out: ROCK 2 IC50 (previously reported); cited from earlier work.

T1 sequence (O75116 whole entry, species assumed): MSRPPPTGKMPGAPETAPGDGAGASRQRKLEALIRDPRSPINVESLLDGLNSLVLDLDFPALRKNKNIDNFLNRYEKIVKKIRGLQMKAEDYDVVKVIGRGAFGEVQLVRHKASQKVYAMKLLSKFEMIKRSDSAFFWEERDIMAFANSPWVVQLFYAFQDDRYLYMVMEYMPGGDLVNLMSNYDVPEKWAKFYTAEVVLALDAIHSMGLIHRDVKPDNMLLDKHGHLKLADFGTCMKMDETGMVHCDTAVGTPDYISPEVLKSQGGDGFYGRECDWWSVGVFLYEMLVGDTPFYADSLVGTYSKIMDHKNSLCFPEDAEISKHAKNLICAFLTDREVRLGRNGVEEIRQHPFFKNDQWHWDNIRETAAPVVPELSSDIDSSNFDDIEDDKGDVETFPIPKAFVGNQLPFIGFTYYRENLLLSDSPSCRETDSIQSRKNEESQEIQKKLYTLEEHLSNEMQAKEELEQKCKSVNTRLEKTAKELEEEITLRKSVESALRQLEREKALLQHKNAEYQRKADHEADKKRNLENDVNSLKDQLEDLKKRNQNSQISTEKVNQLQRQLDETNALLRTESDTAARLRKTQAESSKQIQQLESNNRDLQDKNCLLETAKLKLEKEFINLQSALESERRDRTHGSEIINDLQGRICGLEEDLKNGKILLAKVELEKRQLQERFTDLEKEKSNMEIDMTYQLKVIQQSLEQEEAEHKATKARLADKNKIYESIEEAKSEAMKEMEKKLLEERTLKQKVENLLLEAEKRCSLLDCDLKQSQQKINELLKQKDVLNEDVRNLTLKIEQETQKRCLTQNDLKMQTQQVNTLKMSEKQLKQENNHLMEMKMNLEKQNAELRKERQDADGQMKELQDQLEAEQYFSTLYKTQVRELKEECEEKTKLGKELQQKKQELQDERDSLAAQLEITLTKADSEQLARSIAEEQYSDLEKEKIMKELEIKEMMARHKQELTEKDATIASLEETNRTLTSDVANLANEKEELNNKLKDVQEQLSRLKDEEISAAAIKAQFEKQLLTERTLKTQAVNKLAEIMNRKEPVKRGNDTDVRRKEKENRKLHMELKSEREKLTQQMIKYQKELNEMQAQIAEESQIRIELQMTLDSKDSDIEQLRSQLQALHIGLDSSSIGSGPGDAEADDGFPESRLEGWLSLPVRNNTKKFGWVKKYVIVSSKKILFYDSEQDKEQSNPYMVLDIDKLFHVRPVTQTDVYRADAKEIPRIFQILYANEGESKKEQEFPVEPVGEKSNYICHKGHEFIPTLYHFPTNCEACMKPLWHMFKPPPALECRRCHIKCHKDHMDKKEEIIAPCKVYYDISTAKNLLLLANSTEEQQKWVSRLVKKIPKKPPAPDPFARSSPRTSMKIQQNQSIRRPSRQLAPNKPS

As usually defined, the IC50 is the point on the concentration scale where inhibition reaches its midpoint. With `O=C(NCc1ccccc1)Nc1ccc2[nH]ncc2c1` [Compound 12, 1-Benzyl-3-(1H-indazol-5-yl)urea], the values for the IC50 in test [1], in test [2] and in test [3] were 5.5 ± 3.1 µM, 14 µM and 0.26 µM, respectively.
